Experimental data from ChEMBL document CHEMBL1201862, “PubChem BioAssay data set” (2004).
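Results reflect a 48-hour exposure of cells in 96-well plates to compound at five concentrations. At the GI50, growth is halved.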 Calls of active or inactive are those of the source. Rule as the data show it: active = GI50 up to about 1.1 µM and inactive = higher.

Assays:
Experiment in all cases: NCI anticancer screen, dose series, 48 h
[1] = system: HCT-15
[2] = system: COLO 205
[3] = system: SF-268
[4] = system: SK-MEL-2
[5] = system: CAKI-1
[6] = system: SR
[7] = system: Hs-578T
[8] = system: HCT-116
[9] = system: DU-145
[10] = system: HL-60
[11] = system: HOP-62
[12] = system: HT-29
[13] = system: PC-3
[14] = system: NCI-H226
[15] = system: T47D
[16] = system: NCI-H460
[17] = system: BT-549
[18] = system: SW-620
[19] = system: SF-539
[20] = system: A498

Row | SMILES | GI50 [1] [µM] | GI50 [2] | GI50 [3] | GI50 [4] | GI50 [5] | GI50 [6] | GI50 [7] | GI50 [8] | GI50 [9] | GI50 [10] | GI50 [11] | GI50 [12] | GI50 [13] | GI50 [14] | GI50 [15] | GI50 [16] | GI50 [17] | GI50 [18] | GI50 [19] | GI50 [20]
1 | Cc1ccc(C2=Nc3cccc4cccc(c34)N2)cc1 | > 100 | > 100 µM (inactive) | > 100 µM (inactive) | > 100 µM (inactive) | > 100 µM (inactive) | > 100 µM (inactive) | > 100 µM (inactive) | > 100 µM (inactive) | > 100 µM (inactive) | > 100 µM (inactive) | > 100 µM (inactive) | > 100 µM (inactive) | > 100 µM (inactive) | > 100 µM (inactive) | > 100 µM (inactive) | > 100 µM (inactive) | > 100 µM (inactive) | > 100 µM (inactive) | > 100 µM (inactive) | 
2 | COc1ccc2oc(=O)c(-c3cc4c(c(C)n3)c(=O)oc3ccc(OC)cc34)cc2c1 | > 100 | > 100 µM (inactive) | 55.8 µM (inactive) | > 100 µM (inactive) | 70.8 µM (inactive) | > 100 µM (inactive) | 27.4 µM (inactive) | > 100 µM (inactive) | > 100 µM (inactive) | > 100 µM (inactive) | 30.4 µM (inactive) | 80.5 µM (inactive) | > 100 µM (inactive) | > 100 µM (inactive) | > 100 µM (inactive) | > 100 µM (inactive) | > 100 µM (inactive) | > 100 µM (inactive) | 93.5 µM (inactive) | 
3 | Cc1ccc(/C=C2/N/C(=N\N=C/c3ccccc3)NC2=O)cc1 | 30.9 | 56.5 µM (inactive) | 77.1 µM (inactive) | 39.4 µM (inactive) | 38.5 µM (inactive) | 30.6 µM (inactive) | 25.8 µM (inactive) | 28.6 µM (inactive) | 55.1 µM (inactive) |  | 54.6 µM (inactive) | 46.3 µM (inactive) | 48.5 µM (inactive) | > 100 µM (inactive) | 28.7 µM (inactive) | 31.6 µM (inactive) | 29.9 µM (inactive) | 41.6 µM (inactive) | 44.4 µM (inactive) | 
4 | Clc1ccc(OCC2NC3CCC2CC3)cn1 (centres undefined) | 20.7 | 17.1 µM (inactive) | 51.6 µM (inactive) | 18 µM (inactive) | 42.5 µM (inactive) | 18.7 µM (inactive) | 57.1 µM (inactive) | 20.7 µM (inactive) | 59.3 µM (inactive) | 24.4 µM (inactive) | 22.8 µM (inactive) | 17.9 µM (inactive) | 25.6 µM (inactive) | > 100 µM (inactive) | 29.8 µM (inactive) | 21.3 µM (inactive) | 68.7 µM (inactive) | 22.7 µM (inactive) | 20.7 µM (inactive) | 
5 | O=C(c1ccccc1)C1C[C@H]2CO[C@H](c3ccccc3)N2C1=O (some centres undefined) | > 100 | > 100 µM (inactive) | > 100 µM (inactive) | > 100 µM (inactive) | > 100 µM (inactive) | > 100 µM (inactive) | > 100 µM (inactive) | > 100 µM (inactive) | > 100 µM (inactive) |  |  | > 100 µM (inactive) | > 100 µM (inactive) | > 100 µM (inactive) | > 100 µM (inactive) | > 100 µM (inactive) | > 100 µM (inactive) | > 100 µM (inactive) | > 100 µM (inactive) | 
6 | Clc1ccc(-c2nc(-c3ccc(Cl)cc3)[s+]s2)cc1 | 33.3 | > 100 µM (inactive) | 37.2 µM (inactive) | > 100 µM (inactive) | > 100 µM (inactive) | 28.4 µM (inactive) | 46.7 µM (inactive) | 51.4 µM (inactive) | > 100 µM (inactive) |  | 34 µM (inactive) | 48.1 µM (inactive) | > 100 µM (inactive) |  | > 100 µM (inactive) | 37.6 µM (inactive) | 72.9 µM (inactive) | 55.8 µM (inactive) | 29.7 µM (inactive) | > 100 µM (inactive)
7 | C/C=C1\CC(C(=O)OCC)CCCCCCC1=O (centres undefined) | > 100 | > 100 µM (inactive) | > 100 µM (inactive) | > 100 µM (inactive) | > 100 µM (inactive) |  | > 100 µM (inactive) | > 100 µM (inactive) | > 100 µM (inactive) | 51.1 µM (inactive) | > 100 µM (inactive) | > 100 µM (inactive) | > 100 µM (inactive) | > 100 µM (inactive) | > 100 µM (inactive) |  | > 100 µM (inactive) | > 100 µM (inactive) | > 100 µM (inactive) | > 100 µM (inactive)
8 | CN(C)CCCN1c2ccc([N+](=O)[O-])cc2CCc2cc([N+](=O)[O-])ccc21 | 17.4 | 14.2 µM (inactive) | 14.5 µM (inactive) | 17.5 µM (inactive) | 14.5 µM (inactive) |  | 17.4 µM (inactive) | 13.7 µM (inactive) | 17.4 µM (inactive) | 14.1 µM (inactive) | 12.5 µM (inactive) | 12.4 µM (inactive) | 13.6 µM (inactive) | 15.7 µM (inactive) | 16.1 µM (inactive) | 12.6 µM (inactive) | 15.4 µM (inactive) | 16 µM (inactive) | 18.3 µM (inactive) | 10.3 µM (inactive)
9 | COc1ccc(-c2c(C#N)c(S)n(NS(=O)(=O)c3ccccc3)c(=O)c2C#N)cc1 | 40.6 | 58.1 µM (inactive) | 62.7 µM (inactive) | 47 µM (inactive) | > 72.8 µM (inactive) | 23.1 µM (inactive) | 49 µM (inactive) | 37.9 µM (inactive) | > 100 µM (inactive) | 47.1 µM (inactive) | > 100 µM (inactive) | 45.6 µM (inactive) | 37.7 µM (inactive) | > 100 µM (inactive) | 36.1 µM (inactive) | 48.5 µM (inactive) | 14.3 µM (inactive) | 40.9 µM (inactive) | 24.5 µM (inactive) | 
10 | O=C1Oc2ccccc2C(=O)/C1=C/NC(=S)NCCc1ccccc1 | 34.6 | 48.4 µM (inactive) | 77.1 µM (inactive) | 19.4 µM (inactive) | 35.3 µM (inactive) | 14.6 µM (inactive) | 36.6 µM (inactive) | 33.3 µM (inactive) | 23.4 µM (inactive) | 1.85 µM (inactive) | 51.8 µM (inactive) | 68.1 µM (inactive) | 39.8 µM (inactive) | > 100 µM (inactive) | 35.1 µM (inactive) | 23.8 µM (inactive) | 20.2 µM (inactive) | 42.6 µM (inactive) | 31.2 µM (inactive) | 
11 | C=CCC1(C(=O)OC)CCC/C(=N\O)C1 (centres undefined) | > 10 | > 10 µM (inactive) | > 10 µM (inactive) |  | > 10 µM (inactive) | > 10 µM (inactive) | > 10 µM (inactive) | > 10 µM (inactive) | > 10 µM (inactive) | > 10 µM (inactive) | > 10 µM (inactive) | > 10 µM (inactive) | > 10 µM (inactive) |  | > 10 µM (inactive) |  | > 10 µM (inactive) | > 10 µM (inactive) | > 10 µM (inactive) | 
12 | N#Cc1nc(CCCN2C(=O)c3ccccc3C2=O)oc1N | > 100 | > 100 µM (inactive) | > 100 µM (inactive) | > 100 µM (inactive) | > 100 µM (inactive) | > 100 µM (inactive) | > 100 µM (inactive) | > 100 µM (inactive) | > 100 µM (inactive) |  | > 100 µM (inactive) | > 100 µM (inactive) | > 100 µM (inactive) | > 100 µM (inactive) | > 100 µM (inactive) | > 100 µM (inactive) | > 100 µM (inactive) | > 100 µM (inactive) | > 100 µM (inactive) | 
13 | N#Cc1c(-c2ccccc2)cc(-c2ccccc2)n(C2OCC(O)C(O)C2O)c1=S (centres undefined) | 25.4 | 20.1 µM (inactive) | 23.4 µM (inactive) | 25.4 µM (inactive) | 32.5 µM (inactive) |  | 29.6 µM (inactive) | 14.7 µM (inactive) | 19.7 µM (inactive) |  | 25.6 µM (inactive) | 23 µM (inactive) | 14.6 µM (inactive) | 16.9 µM (inactive) | 4.42 µM (inactive) | 15.4 µM (inactive) | 16.6 µM (inactive) | 16.5 µM (inactive) | 22.2 µM (inactive) | 19.7 µM (inactive)
14 | CC1=C[P+](c2ccccc2)(c2ccccc2)c2ccccc2O1 | > 100 | 1.29 µM (inactive) | 16.6 µM (inactive) | 4.17 µM (inactive) | 23.5 µM (inactive) | 1.56 µM (inactive) | 2.53 µM (inactive) | 3.71 µM (inactive) | 19.2 µM (inactive) | 2.06 µM (inactive) | 11.6 µM (inactive) | 2.91 µM (inactive) | 3.32 µM (inactive) | 15.2 µM (inactive) | 0.597 µM (active) | 20.5 µM (inactive) | 10 µM (inactive) | 5.86 µM (inactive) | 7.89 µM (inactive) | 
15 | CCC1(N)C(=O)OCc2c1cc1n(c2=O)Cc2cc3ccccc3nc2-1 (centres undefined) | 32.7 | 30.5 µM (inactive) | 5.7 µM (inactive) | > 85.7 µM (inactive) | 2.84 µM (inactive) |  | > 100 µM (inactive) | 4.67 µM (inactive) | 2.65 µM (inactive) | 1.74 µM (inactive) | 5.69 µM (inactive) | 15 µM (inactive) | 15.2 µM (inactive) | 6.08 µM (inactive) | 2.35 µM (inactive) | 0.47 µM (active) | 30.5 µM (inactive) | 25.7 µM (inactive) | 4.04 µM (inactive) | 4.74 µM (inactive)
16 | Cc1ccc(F)cc1NC(=O)O/N=C(\Cl)C(C)C | 1.82 | 1.9 µM (inactive) | 24.5 µM (inactive) | 19.1 µM (inactive) | 1.72 µM (inactive) |  | 22.5 µM (inactive) | 5.28 µM (inactive) | 18.2 µM (inactive) | 2.32 µM (inactive) | 19.5 µM (inactive) | 14.6 µM (inactive) | 18 µM (inactive) | 14 µM (inactive) | 4.73 µM (inactive) | 29.2 µM (inactive) | 2.18 µM (inactive) | 2.35 µM (inactive) | 7.21 µM (inactive) | 20 µM (inactive)
